What was measured:
Assay in all cases: relative viability (nuclei count vs DMSO), 5 days (fraction); higher = more cells survive
JZL-184 + Foretinib = compound: C1CN(CCC1C(C2=CC3=C(C=C2)OCO3)(C4=CC5=C(C=C4)OCO5)O)C(=O)OC6=CC=C(C=C6)[N+](=O)[O-] [JZL-184] + COc1cc2c(Oc3ccc(NC(=O)C4(C(=O)Nc5ccc(F)cc5)CC4)cc3F)ccnc2cc1OCCCN1CCOCC1 [Foretinib] (partner 0.25 µM)
Procedure, shortened: (§1)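 Each reported value is a median over duplicate plates. It expresses relative viability: treated-well nuclei count divided by vehicle-well nuclei count. Lung cancer cell lines in 1536-well plates were dosed by pin tool a day after seeding, alone with one drug or with a fixed anchor-drug dose plus five library-drug doses (not always all listed) in √10 steps, and nuclei were counted after 5 days.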

JZL-184 + Decitabine = compound: C1CN(CCC1C(C2=CC3=C(C=C2)OCO3)(C4=CC5=C(C=C4)OCO5)O)C(=O)OC6=CC=C(C=C6)[N+](=O)[O-] [JZL-184] + Nc1ncn([C@H]2C[C@H](O)[C@@H](CO)O2)c(=O)n1 [Decitabine] (partner 2 µM)
Procedure, shortened: as §1

JZL-184 + Alpelisib = compound: C1CN(CCC1C(C2=CC3=C(C=C2)OCO3)(C4=CC5=C(C=C4)OCO5)O)C(=O)OC6=CC=C(C=C6)[N+](=O)[O-] [JZL-184] + Cc1nc(NC(=O)N2CCC[C@H]2C(N)=O)sc1-c1ccnc(C(C)(C)C(F)(F)F)c1 [Alpelisib] (partner 2 µM)
Procedure, shortened: as §1

JZL-184 + OSI-027 = compound: C1CN(CCC1C(C2=CC3=C(C=C2)OCO3)(C4=CC5=C(C=C4)OCO5)O)C(=O)OC6=CC=C(C=C6)[N+](=O)[O-] [JZL-184] + COc1cccc2cc(-c3nc([C@H]4CC[C@H](C(=O)O)CC4)n4ncnc(N)c34)[nH]c12 [OSI-027] (partner 0.5 µM)
Procedure, shortened: as §1

JZL-184 + Luminespib = compound: C1CN(CCC1C(C2=CC3=C(C=C2)OCO3)(C4=CC5=C(C=C4)OCO5)O)C(=O)OC6=CC=C(C=C6)[N+](=O)[O-] [JZL-184] + CCNC(=O)c1noc(-c2cc(C(C)C)c(O)cc2O)c1-c1ccc(CN2CCOCC2)cc1 [Luminespib] (partner 0.01 µM)
Procedure, shortened: as §1

Cell Line	relative viability (JZL-184 + Foretinib; first compound 0.04 µM)	relative viability (JZL-184 + Foretinib; first compound 0.4 µM)	relative viability (JZL-184 + Foretinib; first compound 1.265 µM)	relative viability (JZL-184 + Foretinib; first compound 4 µM)	relative viability (JZL-184 + Decitabine; first compound 0.04 µM)	relative viability (JZL-184 + Decitabine; first compound 0.4 µM)	relative viability (JZL-184 + Decitabine; first compound 1.265 µM)	relative viability (JZL-184 + Decitabine; first compound 4 µM)	relative viability (JZL-184 + Alpelisib; first compound 0.04 µM)	relative viability (JZL-184 + Alpelisib; first compound 0.4 µM)	relative viability (JZL-184 + Alpelisib; first compound 1.265 µM)	relative viability (JZL-184 + Alpelisib; first compound 4 µM)	relative viability (JZL-184 + OSI-027; first compound 0.04 µM)	relative viability (JZL-184 + OSI-027; first compound 0.4 µM)	relative viability (JZL-184 + OSI-027; first compound 1.265 µM)	relative viability (JZL-184 + OSI-027; first compound 4 µM)	relative viability (JZL-184 + Luminespib; first compound 0.04 µM)	relative viability (JZL-184 + Luminespib; first compound 0.4 µM)	relative viability (JZL-184 + Luminespib; first compound 1.265 µM)	relative viability (JZL-184 + Luminespib; first compound 4 µM)
NCI-H1975	1.02	0.94	0.987	0.87	0.429	0.368	0.413	0.397	0.751	0.673	0.642	0.577	0.842	0.759	0.764	0.654	0.275	0.292	0.265	0.168
RERF-LC-KJ	0.933	0.9	0.876	0.781	0.854	0.706	0.808	0.56	0.753	0.761	0.837	0.804	0.58	0.625	0.562	0.478	1.34	1.37	1.31	1.2
NCI-H322M	1.12	0.932	1.03	0.791	0.661	0.684	0.678	0.668	0.656	0.777	0.749	0.775	0.555	0.488	0.55	0.52	0.91	0.797	0.889	0.705
NCI-H1651	0.798	0.786	0.725	0.788	0.667	0.358	0.428	0.623	1.05	0.929	1.03	0.834	0.684	0.664	0.855	0.794	0.894	0.797	0.902	0.765
HARA	1.16	0.569	0.968	0.924	0.621		0.561	0.468	0.941	0.824	0.853	0.845	0.547	0.444	0.614	0.456	0.808	0.739	1.03	0.757
H3255	0.832	0.684	0.95	0.987	0.648	0.63	0.59	0.646	0.794	0.725	0.714	0.577	0.563	0.52	0.557	0.589	1.03	0.765	1	0.938
NCI-H441	1.36	0.907	0.897	1.06	0.237	0.249	0.188	0.281	1.11	0.634	0.755	1.09	0.604	0.541	0.591	0.601	0.442	0.325	0.365	0.347
